Key:
[1] = system: ApoE−/− mice; test: Atherosclerosis in ApoE-/- mice on high cholesterol chow, aortic plaque Sudan IV staining; format: in vivo, mouse
Experimental: Dosing regimen: Hypercholesterolemia is an important trigger for the development of atherosclerosis. […] The specific scheme is as follows. 60 ApoE^−/− mice, males, were equally divided into 6 groups (n=10), of which 5 groups were fed with high cholesterol chow (Research diet, item no. D12079B) for modeling, and 1 group was set aside as a blank control group, while long-term administration of the drug was carried out, i.e., the model control group, the positive control ETC-1002 30 mg/kg group, and the compounds A3 15 mg/kg and 30 mg/kg and 60 mg/kg groups, and blank control group. The compounds in each group were configured with saline (0.9% NaCl) and administered at a frequency of 1 time/day for a 24-week dosing cycle.
Indicator test: The body weight and food intake of ApoE^−/− mice were closely monitored during the administration period. After 24 weeks of compound administration in each group, the aortic vessels of mice were stripped and Sudan IV staining of aortic plaques was performed, and the plaque area was counted with Image-Pro Plus software.

[2] = system: ACLY knockdown primary hepatocytes; test: De novo lipid synthesis in ACLY knockdown primary hepatocytes, [14C]-citric acid tracer; format: cell-based, mouse; settings: [14C]-citric acid substrate
Description: Test protocol: In order to further investigate the dependence of the inhibitory effect of the series of compounds on de novo lipid synthesis on ACLY, the inventors chose ACLY knockdown primary hepatocytes for further evaluation of de novo lipid synthesis, while compound ETC-1002 was used as a positive control. Specifically, the experimental protocol was as above, and 0.1 μCi/well [^14C]-citric acid was used for tracing.

[3] = molecular target: T1, Human-derived ACLY protein (Homo sapiens, UniProt P53396); test: ACLY citrate cleavage enzyme inhibition, ADP-Glo assay; format: biochemical; settings: 25 nM enzyme, 30 min, 37° C., read-out: IC50 for inhibition of ACLY enzyme activity (mean ± SD)
T1 construct: purchased Beijing Yiqiao Shenzhou Technology Co., Ltd 11769-H07B
T1 sequence (P53396 1-1101): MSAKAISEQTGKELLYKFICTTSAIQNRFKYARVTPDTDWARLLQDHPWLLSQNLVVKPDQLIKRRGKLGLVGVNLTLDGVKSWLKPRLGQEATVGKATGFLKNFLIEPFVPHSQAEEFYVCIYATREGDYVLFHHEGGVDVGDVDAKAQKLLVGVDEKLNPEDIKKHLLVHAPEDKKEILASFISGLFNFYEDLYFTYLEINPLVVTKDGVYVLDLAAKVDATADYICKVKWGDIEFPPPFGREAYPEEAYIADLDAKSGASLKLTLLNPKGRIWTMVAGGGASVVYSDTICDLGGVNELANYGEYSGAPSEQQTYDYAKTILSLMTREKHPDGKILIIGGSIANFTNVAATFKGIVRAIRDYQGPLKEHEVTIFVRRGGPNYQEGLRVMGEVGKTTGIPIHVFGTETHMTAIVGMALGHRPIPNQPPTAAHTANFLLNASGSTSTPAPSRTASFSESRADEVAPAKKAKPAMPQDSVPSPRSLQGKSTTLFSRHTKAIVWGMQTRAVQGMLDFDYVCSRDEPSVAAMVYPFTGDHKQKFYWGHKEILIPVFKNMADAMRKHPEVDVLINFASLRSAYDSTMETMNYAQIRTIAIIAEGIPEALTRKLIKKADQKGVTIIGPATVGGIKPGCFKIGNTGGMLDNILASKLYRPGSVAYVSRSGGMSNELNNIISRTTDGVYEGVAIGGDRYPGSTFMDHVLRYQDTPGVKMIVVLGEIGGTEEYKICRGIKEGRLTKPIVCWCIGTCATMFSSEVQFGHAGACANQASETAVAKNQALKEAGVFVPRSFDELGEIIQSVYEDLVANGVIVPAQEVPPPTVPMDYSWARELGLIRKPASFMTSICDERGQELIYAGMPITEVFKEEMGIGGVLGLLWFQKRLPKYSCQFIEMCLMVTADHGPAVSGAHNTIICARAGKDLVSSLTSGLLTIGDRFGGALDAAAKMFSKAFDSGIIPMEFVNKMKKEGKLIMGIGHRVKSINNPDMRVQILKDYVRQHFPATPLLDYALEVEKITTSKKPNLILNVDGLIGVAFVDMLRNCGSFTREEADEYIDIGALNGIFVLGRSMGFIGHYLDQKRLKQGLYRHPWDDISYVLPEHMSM
Description: The ACLY-catalyzed citric acid cleavage process requires the consumption of one molecule of ATP to activate citric acid. Based on this reaction principle, the inventors utilized an ADP-Glo assay kit to detect the amount of ATP converted to ADP in response to the catalytic activity of ACLY. After the establishment of the activity measurement system and optimization of the reaction conditions, the inventors evaluated the ACLY inhibitory activity of the obtained novel ACLY small molecule inhibitors.
Activity test protocol: Human-derived ACLY protein was purchased from Beijing Yiqiao Shenzhou Technology Co., Ltd (Item No. 11769-H07B), and ADP-Glo assay kit was purchased from Promega (Item No. V9102). The total volume of the reaction was 5 μL, which consisted of a mixture of three parts: 1 μL of 2% DMSO, 2 μL of the substrate mixture, and 2 μL of the enzyme (final concentration of 25 nM). Then 1 μL of different concentrations of compounds were added for incubation. Reaction conditions: 30 min, 37° C. Then 2.5 μL of ADP Reagent from ADP-Glo Kit was used, mixed well and reacted for 2 h. 5 μL of ADP Detection was added, centrifuged and mixed well. Then the full wavelength value was read from Envision multifunctional plate reader.
Results: Firstly, the cumulative amount of fluorescence intensity of the enzyme in 30 min reaction time (RFU/min) was calculated to represent the initial velocity of the enzyme, and then the ratio of the enzyme's velocity with the addition of compounds (vsample) to the enzyme's velocity without the addition of compounds (vDMSO) was calculated to be the percentage of activity for each concentration group of the samples (Activity rate %), with the formula: % Activity=(V(sample)/(v(DMSO))×100%. The logarithmic value of the concentration was plotted against the activity percentage, and then a non-linear regression was used to calculate the fitted curve. The software GraphPad Prism 8.0 (formula log (inhibitor) vs. response—Variable slope) was used to fit the curve and calculate the IC50 value, and the results are shown in the table below.

## CC(C)(CCCC/C=C/CCCCCC(C)(C)C(=O)O)C(=O)O [Compound A3]
[1]; 15, 30 and 60 mg/kg groups, 1 time/day, 24 weeks, vs control group
  area of aortic plaque: significantly reduced
[1]; statement on previous studies
  improving atherosclerosis compared with ETC-1002: significantly better than ETC-1002
[2]
  inhibitory effect on de novo synthesis of cholesterol: significantly attenuated or even the inhibitory effect was not manifested
  inhibitory effect on de novo synthesis of triglycerides: significantly attenuated or even the inhibitory effect was not manifested
[3]
  IC50: 85.4 ± 9.8 µM

From US20250144127A1, “LONG-CHAIN COMPOUND AND USE THEREOF” (Burgeon Therapeutics Co., Ltd., priority 2021, published 2025)
